Earlier results, collected in paper PMC5944028, “Nonclinical and clinical pharmacological characterization of the potent and selective cathepsin K inhibitor MIV-711” (Journal of Translational Medicine, 2018).

How the values were obtained:
urinary CTX-II = settings: postmenopausal women with osteoporosis, 12 months; cited from earlier work
[1] = human, weekly dose of 50 mg, cited from earlier work

| SMILES | Reduction of urinary CTX-II (urinary CTX-II) [%] | mean plasma AUC0–24h [1] [µM·h] | IC50 ([1]; read-out: trough plasma IC50) [nM] |
| --- | --- | --- | --- |
| C[C@@H]1CS/C(=N\NC(=O)C(=O)[C@@H](NC(=O)C2CCCCCC2)C2CCOCC2)N1C [ONO-5334, reference compound] | 50 |  |  |
| CC(C)(F)C[C@H](N[C@@H](c1ccc(-c2ccc(S(C)(=O)=O)cc2)cc1)C(F)(F)F)C(=O)NC1(C#N)CC1 [odanacatib] |  | 6 to 7 | 50 to 60 |
